From publication PMC10683025, “Discovery of a Hydroxylamine-Based Brain-Penetrant EGFR Inhibitor for Metastatic Non-Small-Cell Lung Cancer” (Journal of Medicinal Chemistry, 2023)

How the values were obtained:
[1] = target: T1, ABL1(F317L)-nonphosphorylated (Homo sapiens, UniProt P00519, F317L); assay: KINOMEScan; type: binding; details: read-out: Percent Control
T1 construct: purchased Eurofins DiscoverX
Description: (§4) Percent control was mapped onto the kinome tree using TREEspot.

[2] = Metabolic stability in hepatocytes; type: in vitro ADME, cynomolgus monkey; details: for Remaining Percentages: monkey hepatocytes
Description: Microsome stability was assessed in duplicate (n = 2) in the presence and absence of nicotinamide adenine dinucleotide phosphate (NADPH) with liver microsomes (0.5 mg/mL) from human (BD Gentest) and Sprague-Dawley rats (BD Gentest). Compounds were incubated in liver microsomes at 1 μM and samples (30 μL) were taken at 0.5, 15, 30, 45, and 60 min time points for analysis by LC-MS/MS. Hepatocyte stability was assessed in duplicate (n = 2) at a working cell density of 0.5 × 10^6 cells/mL with hepatocytes from human (BiolVT), Sprague-Dawley rat (BiolVT), cynomolgus monkey (RILD) or beagle dog (BiolVT). […] The in vitro half-life and intrinsic clearances were determined as previously described.[76]
In vitro half-life (in vitro t1/2) was determined from the slope value in [drawing 1] where k was determined by linear regression of the natural logarithm of the remaining percentage of the parent drug vs the incubation time curve.

[3] = target: T2, ABL1(H396P)-phosphorylated (Homo sapiens, UniProt P00519, H396P); assay: KINOMEScan; type: binding; details: read-out: Percent Control
T2 construct: purchased Eurofins DiscoverX
Description: as §4

[4] = target: T3, ZAP70 (Homo sapiens, UniProt P43403); assay: KINOMEScan; type: binding; details: ZAP70, 1 µM; read-out: Percent Control
T3 construct: purchased Eurofins DiscoverX (KINOMEScan service)
Description: as §4

[5] = tested on: SK-BR-3 (HER2-positive breast cancer); assay: CellTiter-Glo cell viability assay; type: cell-based, human; details: Homo sapiens, SK-BR-3; 72 h, unadjusted for FBS
Description: (§1) The A431, HCC827, SK-BR-3, ZR-75–30, AU565, and Caco-2 cell lines were obtained from ATCC. The NCI-H1975 cell line was obtained from SIBS. The NCI-H3255 cell line was obtained from CoBioer. Engineered Ba/F3 cell lines were obtained from Crown Bioscience. MCKII-MDR1 cells were obtained from The Netherlands Cancer Institute. HEK293 cells were obtained from Invitrogen. A431 cells were cultured in DMEM (Life Technologies) with 10% FBS. HCC827, NCI-H1975, and AU565 cells were cultured in RPMI1640 (Invitrogen) with 10% FBS. NCI-H3255 cells were cultured in BEGM (Lonza) with 10% FBS. Ba/F3 EGFR-del E746_A750/C797S and Ba/F3 EGFR-L858R/C797S cells were cultured in RPMI (Invitrogen) with 10% FBS. SK-BR-3 cells were cultured in McCoy’s 5a (Invitrogen) with 10% FBS. ZR-75-30 cells were cultured in RPMI1640 (Invitrogen) with 20% FBS. Caco-2 and MCKII-MDR1 culture information is given in the Permeability Studies section. HEK293 cells were cultured in DMEM (Gibco) with 10% FBS, 0.1 mM NEAA, 25 mM HEPES, 100 U/mL penicillin-streptomycin, μg/mL blasticidin, and 400 μg/mL Geneticin. All cells were cultured in a humidified incubator with 5% CO2 at 37 °C.
(§2) Viability assays using A431, HCC827, NCI-H1975, NCI-H3255, Ba/F3 EGFR-del E746_A750/C797S, Ba/F3 EGFR-L858R/C797S, AU565, SK-BR-3, and ZR-75-30 cells were performed at Crown BioScience. Cells were plated into 96-well plates at 1500–7000 cells per well and dosed in triplicate (n = 3) in a nine-point, 4-fold dilution series with compounds (0.15 nM to 10 μM) in DMSO and incubated for 72 h. After 72 h, cell viability was assayed by CellTiter-Glo Luminescent Viability Assay (Promega). Dose–response curves were generated and used to calculate the IC50 values which were calculated on GraphPad Prism from the nonlinear regression equation fitted with a sigmoidal dose response and are presented as mean ± SEM.

[6] = tested on: NCI-H1975 (EGFR mutation = L858R/T790M); assay: CellTiter-Glo cell viability assay; type: cell-based, human; details: Homo sapiens, NCI-H1975; 72 h, unadjusted for FBS
Description: as §1, §2

[7] = tested on: AU565 (HER2-positive breast cancer); assay: CellTiter-Glo cell viability assay; type: cell-based, human; details: Homo sapiens, AU565; 72 h, unadjusted for FBS
Description: as §1, §2

[8] = tested on: ZR-75-30 (HER2-positive breast cancer); assay: CellTiter-Glo cell viability assay; type: cell-based, human; details: Homo sapiens, ZR-75-30; 72 h, unadjusted for FBS
Description: as §1, §2

[9] = tested on: A431 cell line (overexpressed EGFRwt); assay: CellTiter-Glo cell viability assay; type: cell-based, human; details: Homo sapiens, A-431; 72 h, unadjusted for FBS
Description: as §1, §2

[10] = target: T4, DRAK1 (Homo sapiens, UniProt Q9UEE5); assay: KINOMEScan; type: binding; details: DRAK1, 1 μM; read-out: Percent Control
T4 construct: purchased Eurofins DiscoverX (contract assay)
T4 sequence (Q9UEE5 1-414): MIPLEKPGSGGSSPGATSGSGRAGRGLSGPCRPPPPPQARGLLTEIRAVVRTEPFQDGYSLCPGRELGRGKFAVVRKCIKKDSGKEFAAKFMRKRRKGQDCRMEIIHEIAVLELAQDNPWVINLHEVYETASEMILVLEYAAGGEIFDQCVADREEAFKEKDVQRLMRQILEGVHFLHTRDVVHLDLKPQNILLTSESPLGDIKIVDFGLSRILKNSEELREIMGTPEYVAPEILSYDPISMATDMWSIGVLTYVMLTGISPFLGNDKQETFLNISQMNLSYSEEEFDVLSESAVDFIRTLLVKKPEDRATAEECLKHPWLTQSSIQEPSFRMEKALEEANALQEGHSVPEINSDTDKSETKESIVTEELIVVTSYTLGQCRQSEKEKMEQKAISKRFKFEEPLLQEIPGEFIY
Description: as §4

[11] = target: T5, BMPR1B (Homo sapiens, UniProt O00238); assay: KINOMEScan; type: binding; details: read-out: Percent Control
T5 construct: purchased Eurofins DiscoverX (KINOMEscan)
Description: as §4

[12] = target: T6, BIKE (Homo sapiens, UniProt Q9NSY1); assay: KINOMEScan; type: binding; details: read-out: Percent Control
T6 construct: purchased Eurofins DiscoverX (KINOMEscan)
Description: as §4

[13] = target: BCR-ABLwt (Homo sapiens, UniProt P00519); assay: KinaseProfiler enzymatic radiometric assay; type: biochemical; details: read-out: Kinase IC50
Description: (§3) In vitro kinase activity (inhibitor binding constants (Kd) and biochemical inhibition (IC50’s)) were assessed by Eurofins DiscoverX (Kd determinations) and Eurofins Cerep (biochemical IC50 determinations).

[14] = target: T7, ERBB4 (Homo sapiens, UniProt Q15303); assay: KinaseProfiler enzymatic radiometric assay; type: biochemical; details: read-out: Kinase IC50
T7 construct: purchased Eurofins Cerep (KinaseProfiler, contract assay)
T7 sequence (Q15303 26-1308): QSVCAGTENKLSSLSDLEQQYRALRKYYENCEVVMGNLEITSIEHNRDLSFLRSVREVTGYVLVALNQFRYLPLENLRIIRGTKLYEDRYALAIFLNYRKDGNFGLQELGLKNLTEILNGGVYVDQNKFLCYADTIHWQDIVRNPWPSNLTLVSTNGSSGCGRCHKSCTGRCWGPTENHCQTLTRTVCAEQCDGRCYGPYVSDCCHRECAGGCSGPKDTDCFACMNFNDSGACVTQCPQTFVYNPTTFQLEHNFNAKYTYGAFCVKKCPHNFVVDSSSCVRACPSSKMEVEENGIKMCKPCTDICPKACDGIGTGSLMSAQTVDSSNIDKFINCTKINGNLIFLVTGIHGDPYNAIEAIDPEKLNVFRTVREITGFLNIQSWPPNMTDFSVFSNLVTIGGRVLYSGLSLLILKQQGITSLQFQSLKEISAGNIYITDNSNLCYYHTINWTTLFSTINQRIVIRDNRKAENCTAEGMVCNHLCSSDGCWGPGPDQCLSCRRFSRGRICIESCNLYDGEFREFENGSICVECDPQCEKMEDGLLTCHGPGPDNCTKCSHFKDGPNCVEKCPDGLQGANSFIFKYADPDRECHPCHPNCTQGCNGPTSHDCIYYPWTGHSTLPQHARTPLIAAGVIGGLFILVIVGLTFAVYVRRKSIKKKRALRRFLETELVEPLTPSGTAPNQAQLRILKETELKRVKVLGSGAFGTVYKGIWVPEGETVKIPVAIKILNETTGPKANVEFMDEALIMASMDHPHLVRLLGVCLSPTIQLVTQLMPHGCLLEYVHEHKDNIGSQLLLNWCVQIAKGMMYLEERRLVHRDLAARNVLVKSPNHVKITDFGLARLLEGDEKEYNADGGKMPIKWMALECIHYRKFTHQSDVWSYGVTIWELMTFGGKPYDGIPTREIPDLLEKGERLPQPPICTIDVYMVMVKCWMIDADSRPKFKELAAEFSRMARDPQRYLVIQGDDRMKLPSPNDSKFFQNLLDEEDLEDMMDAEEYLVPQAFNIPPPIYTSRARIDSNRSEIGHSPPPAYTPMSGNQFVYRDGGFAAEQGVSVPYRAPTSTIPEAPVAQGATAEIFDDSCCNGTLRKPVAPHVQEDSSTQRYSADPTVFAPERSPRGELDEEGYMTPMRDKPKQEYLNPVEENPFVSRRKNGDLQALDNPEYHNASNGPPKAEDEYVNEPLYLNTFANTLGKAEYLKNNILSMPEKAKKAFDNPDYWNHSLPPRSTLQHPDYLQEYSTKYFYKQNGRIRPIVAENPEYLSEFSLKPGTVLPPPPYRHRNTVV
Description: as §3

[15] = target: T4, DRAK1; assay: KinaseProfiler enzymatic radiometric assay; type: biochemical; details: read-out: Kinase IC50
Description: as §3

[16] = target: T8, ERBB2 (Homo sapiens, UniProt P04626); assay: KinaseProfiler enzymatic radiometric assay; type: biochemical; details: read-out: Kinase IC50
T8 construct: purchased Eurofins DiscoverX (contract assay)
T8 sequence (P04626 23-1255): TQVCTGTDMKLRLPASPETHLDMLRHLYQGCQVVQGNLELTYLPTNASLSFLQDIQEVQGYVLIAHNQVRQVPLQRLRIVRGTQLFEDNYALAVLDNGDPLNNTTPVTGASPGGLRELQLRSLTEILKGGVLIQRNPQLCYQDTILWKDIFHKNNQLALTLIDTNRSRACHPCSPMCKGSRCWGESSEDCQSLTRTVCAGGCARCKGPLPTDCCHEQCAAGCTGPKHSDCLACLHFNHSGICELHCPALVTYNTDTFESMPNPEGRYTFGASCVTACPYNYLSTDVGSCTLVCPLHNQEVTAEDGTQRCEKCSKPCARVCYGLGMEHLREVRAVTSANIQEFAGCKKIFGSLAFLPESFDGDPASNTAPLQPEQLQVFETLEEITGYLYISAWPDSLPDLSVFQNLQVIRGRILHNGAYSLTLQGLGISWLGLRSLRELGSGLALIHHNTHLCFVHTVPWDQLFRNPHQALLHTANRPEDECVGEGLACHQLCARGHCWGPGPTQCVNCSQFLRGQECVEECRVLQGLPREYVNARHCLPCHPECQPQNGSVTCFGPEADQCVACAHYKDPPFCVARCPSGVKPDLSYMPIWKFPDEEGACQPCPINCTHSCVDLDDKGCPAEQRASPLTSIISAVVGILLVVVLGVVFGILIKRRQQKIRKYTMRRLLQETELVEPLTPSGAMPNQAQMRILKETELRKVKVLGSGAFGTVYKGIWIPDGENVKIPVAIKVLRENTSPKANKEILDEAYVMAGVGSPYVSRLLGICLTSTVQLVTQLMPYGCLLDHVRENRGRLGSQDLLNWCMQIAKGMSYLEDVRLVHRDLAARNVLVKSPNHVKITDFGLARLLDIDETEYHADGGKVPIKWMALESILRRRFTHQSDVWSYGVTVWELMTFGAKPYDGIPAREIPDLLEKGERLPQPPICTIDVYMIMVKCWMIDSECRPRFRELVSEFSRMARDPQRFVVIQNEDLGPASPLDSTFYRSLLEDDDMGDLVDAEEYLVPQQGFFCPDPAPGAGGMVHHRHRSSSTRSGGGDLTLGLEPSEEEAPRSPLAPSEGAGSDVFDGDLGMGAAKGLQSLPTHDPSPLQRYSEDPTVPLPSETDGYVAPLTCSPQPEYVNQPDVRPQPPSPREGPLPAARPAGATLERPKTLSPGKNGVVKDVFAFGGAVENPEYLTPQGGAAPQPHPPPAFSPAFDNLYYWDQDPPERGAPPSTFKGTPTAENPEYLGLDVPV
Description: as §3

[17] = target: T9, LYN (Homo sapiens, UniProt P07948); assay: KinaseProfiler enzymatic radiometric assay; type: biochemical; details: read-out: Kinase IC50
T9 construct: purchased Eurofins DiscoverX (contract assay)
Description: as §3

[18] = target: T10, WNK1 (Homo sapiens, UniProt Q9H4A3); assay: KINOMEScan; type: binding; details: WNK1, 1 µM; read-out: Percent Control
T10 construct: purchased Eurofins DiscoverX
T10 sequence (Q9H4A3 whole entry): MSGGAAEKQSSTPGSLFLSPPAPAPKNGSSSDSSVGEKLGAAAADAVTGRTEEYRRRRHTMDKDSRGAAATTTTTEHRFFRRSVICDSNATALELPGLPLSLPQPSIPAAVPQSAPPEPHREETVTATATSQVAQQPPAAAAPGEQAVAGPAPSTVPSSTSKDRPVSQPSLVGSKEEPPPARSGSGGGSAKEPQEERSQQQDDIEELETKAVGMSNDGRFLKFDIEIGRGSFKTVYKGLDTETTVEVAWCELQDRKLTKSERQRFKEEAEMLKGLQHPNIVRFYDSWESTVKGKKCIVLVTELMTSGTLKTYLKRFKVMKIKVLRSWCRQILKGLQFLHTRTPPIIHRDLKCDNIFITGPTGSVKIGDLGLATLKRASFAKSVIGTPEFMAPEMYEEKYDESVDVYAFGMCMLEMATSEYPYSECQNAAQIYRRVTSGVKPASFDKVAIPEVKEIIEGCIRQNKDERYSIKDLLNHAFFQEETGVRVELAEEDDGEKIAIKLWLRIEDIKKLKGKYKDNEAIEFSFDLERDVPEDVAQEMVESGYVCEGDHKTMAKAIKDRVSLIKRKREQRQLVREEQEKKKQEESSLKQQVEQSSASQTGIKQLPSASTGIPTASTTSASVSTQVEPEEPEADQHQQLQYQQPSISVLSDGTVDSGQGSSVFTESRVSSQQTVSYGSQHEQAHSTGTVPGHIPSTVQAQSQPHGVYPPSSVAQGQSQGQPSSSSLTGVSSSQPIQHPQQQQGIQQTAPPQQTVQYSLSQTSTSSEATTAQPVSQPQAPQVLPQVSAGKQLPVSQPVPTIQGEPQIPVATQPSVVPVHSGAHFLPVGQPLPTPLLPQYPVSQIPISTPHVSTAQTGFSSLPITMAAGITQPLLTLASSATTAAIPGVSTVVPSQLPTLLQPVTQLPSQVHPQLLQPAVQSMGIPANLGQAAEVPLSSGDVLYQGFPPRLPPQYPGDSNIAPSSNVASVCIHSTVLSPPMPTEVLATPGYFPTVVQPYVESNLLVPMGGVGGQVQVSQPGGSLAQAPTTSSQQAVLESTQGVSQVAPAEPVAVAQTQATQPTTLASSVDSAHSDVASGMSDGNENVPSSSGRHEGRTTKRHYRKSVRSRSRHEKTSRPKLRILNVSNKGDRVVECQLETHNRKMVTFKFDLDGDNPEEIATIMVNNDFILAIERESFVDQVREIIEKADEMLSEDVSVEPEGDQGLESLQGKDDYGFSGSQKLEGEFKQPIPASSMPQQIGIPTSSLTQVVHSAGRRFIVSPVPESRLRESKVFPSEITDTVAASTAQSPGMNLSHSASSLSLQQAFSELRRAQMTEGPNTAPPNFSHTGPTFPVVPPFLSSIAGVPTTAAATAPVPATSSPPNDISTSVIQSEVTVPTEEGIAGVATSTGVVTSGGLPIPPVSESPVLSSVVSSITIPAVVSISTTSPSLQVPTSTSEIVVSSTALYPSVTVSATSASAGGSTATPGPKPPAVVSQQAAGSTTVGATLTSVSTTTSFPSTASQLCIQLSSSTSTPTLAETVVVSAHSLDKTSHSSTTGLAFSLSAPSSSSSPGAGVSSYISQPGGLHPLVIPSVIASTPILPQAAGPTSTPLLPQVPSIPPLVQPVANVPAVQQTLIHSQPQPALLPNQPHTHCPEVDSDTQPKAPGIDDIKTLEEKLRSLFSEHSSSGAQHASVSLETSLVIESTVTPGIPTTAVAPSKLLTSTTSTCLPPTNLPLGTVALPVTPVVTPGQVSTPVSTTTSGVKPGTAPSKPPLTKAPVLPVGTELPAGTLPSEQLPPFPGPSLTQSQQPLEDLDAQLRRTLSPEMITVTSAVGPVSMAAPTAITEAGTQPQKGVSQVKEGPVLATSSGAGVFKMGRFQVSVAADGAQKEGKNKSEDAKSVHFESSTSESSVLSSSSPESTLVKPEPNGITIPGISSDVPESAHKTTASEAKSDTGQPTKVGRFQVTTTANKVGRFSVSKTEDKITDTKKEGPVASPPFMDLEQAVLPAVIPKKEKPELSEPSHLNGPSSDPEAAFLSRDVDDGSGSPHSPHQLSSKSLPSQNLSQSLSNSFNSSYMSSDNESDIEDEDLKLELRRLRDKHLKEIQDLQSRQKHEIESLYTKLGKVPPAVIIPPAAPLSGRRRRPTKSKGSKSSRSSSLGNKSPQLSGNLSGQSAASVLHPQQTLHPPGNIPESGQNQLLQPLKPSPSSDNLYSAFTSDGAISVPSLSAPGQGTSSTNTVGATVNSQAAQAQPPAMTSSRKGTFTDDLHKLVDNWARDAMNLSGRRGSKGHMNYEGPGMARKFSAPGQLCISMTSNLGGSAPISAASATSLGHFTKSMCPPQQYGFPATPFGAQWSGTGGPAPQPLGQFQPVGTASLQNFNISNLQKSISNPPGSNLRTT
Description: as §4

Which remaining binding at 1 µM [1] does the source give for COc1cc2ncnc(Nc3cccc(Cl)c3F)c2cc1OCCON1CCN(C)CC1 [Compound 9, N-(3-Chloro-2-fluorophenyl)-7-methoxy-6-(2-((4-methylpiperazin-1-yl)oxy)ethoxy)quinazolin-4-amine] here?
The remaining binding at 1 µM was 16%.

What about the hepatocyte CLint at 2 h, 1 µM ([2]; cynomolgus monkey, hepatocytes) of the same compound?
Its hepatocyte CLint at 2 h, 1 µM is 29 µL/min/1e6 cells.

And the “Remaining Percentages” value ([2]; 15 min)?
The value was 49.08%.

And the “Remaining Percentages” value ([2]; 30 min)?
Its value is 30.35%.

And the “Remaining Percentages” value ([2]; 60 min)?
The value was 13.17%.

What about the “Remaining Percentages” value ([2]; 90 min) of the same compound?
The value was 4.27%.

And the “Remaining Percentages” value ([2]; 120 min)?
The value was “BLOD”.

What about the remaining binding at 1 µM [3] of the same compound?
The remaining binding at 1 µM was 6.6%.

What about the remaining binding at 1 µM [4] of the same compound?
The remaining binding at 1 µM was 98%.

And the IC50 [5]?
The IC50 was 1510 nM.

And the IC50 [6]?
The IC50 was over 10000 nM.

What about the IC50 [7] of the same compound?
The IC50 was 986 ± 138 nM.

What about the IC50 [8] of the same compound?
The IC50 was 1630 nM.

What about the IC50 [9] of the same compound?
Its IC50 is 83 nM.

What about the remaining binding at 1 µM [10] of the same compound?
The remaining binding at 1 µM was 8.3%.

What about the remaining binding at 1 µM [11] of the same compound?
Its remaining binding at 1 µM is 79%.

What about the remaining binding at 1 µM [12] of the same compound?
Its remaining binding at 1 µM is 99%.

What about the IC50 [13] of the same compound?
Its IC50 is 976 nM.

And the IC50 [14]?
Its IC50 is 330 nM.

And the IC50 [15]?
Its IC50 is 1030 nM.

What about the IC50 [16] of the same compound?
The IC50 was 12 nM.

What about the IC50 [17] of the same compound?
The IC50 was 58 nM.

And the remaining binding at 1 µM [18]?
Its remaining binding at 1 µM is 100%.
